Source: patent publication US20160175318A1, “COMPOSITIONS COMPRISING ANTIBACTERIAL AGENT AND TAZOBACTAM” (WOCKHARDT LIMITED, priority 2013, published 2016)
Where two headings read alike, the source gives them in different places.

Assays:
Format in all cases: cell-based
[1] = test system: E. coli M-138; experiment: Quantitative drug diffusion assay (disc, zone of inhibition, CLSI); parameters: key to Interpretation of zone as per CLSI recommendations: R: Resistant; I: Intermediate; S: Sensitive (Interpretation as per CLSI recommendations, 2010)
Description: (§1) Activity of cefepime in combination with tazobactam and various penicillins in combination with respective ESBL inhibitors was also investigated against highly resistant ESBL strains in quantitative drug diffusion assay performed as per CLSI recommendations (Clinical and Laboratory Standards Institute (CLSI), performance Standards for Antimicrobial Susceptibility Testing, 20th Informational Supplement, M 100-S20, Volume 30, No. 1, 2010).
(§2) In a typical study, overnight grown bacterial cultures after appropriate dilution were seed inoculated in the molten, cooled agar media and plates poured. Antibiotics containing 6 mm diameter discs were place on the top of the agar surface. Zone of inhibition based observation was performed after 16-18 h of incubation at 35±2° C. in ambient air. The overall procedure was performed as per CLSI recommendations (Table 5 and 6). These assays are routinely used in determining possibility of treating a particular infection using antibiotic and/or their combinations. For example, in case of treating an infection caused by E. coli (M138) using Augmentin® [commercially available combination: Amoxicillin (500 mg)+Clavulanic acid (125 mg)], the zone inhibition values need to be in the sensitive (S) range.

[2] = test system: E. coli B-123; experiment: as above; parameters: key to Interpretation of zone as per CLSI recommendations: R: Resistant; I: Intermediate; S: Sensitive (Interpretation as per CLSI recommendations, 2010)
Description: as §1, §2

[3] = test system: E. coli M50; experiment: as above; parameters: key to Interpretation of zone as per CLSI recommendations: R: Resistant; I: Intermediate; S: Sensitive (Interpretation as per CLSI recommendations, 2010)
Description: as §1, §2

[4] = test system: E. coli B-89; experiment: as above; parameters: key to Interpretation of zone as per CLSI recommendations: R: Resistant; I: Intermediate; S: Sensitive (Interpretation as per CLSI recommendations, 2010)
Description: as §1, §2

[5] = test system: E. coli 7MP; experiment: as above; parameters: key to Interpretation of zone as per CLSI recommendations: R: Resistant; I: Intermediate; S: Sensitive (Interpretation as per CLSI recommendations, 2010)
Description: as §1, §2

[6] = test system: E. coli S-112; experiment: as above; parameters: key to Interpretation of zone as per CLSI recommendations: R: Resistant; I: Intermediate; S: Sensitive (Interpretation as per CLSI recommendations, 2010)
Description: as §1, §2

[7] = test system: E. cloacae M-20; experiment: MIC by agar dilution (CLSI) against highly resistant ESBL strain; conditions: E. cloacae M-20
In short: (§3)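 Cephalosporins, including cefepime, combined with tazobactam; CLSI agar dilution with twofold steps. Overnight cultures diluted, inoculated, incubated 35±2° C for 16-20 h, ambient air, then checked for growth.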

[8] = test system: K. pneumoniae M150; experiment: as above
In short: as §3

[9] = test system: E. coli M50; experiment: as above
In short: as §3

[10] = test system: E. coli B123; experiment: as above; conditions: for Activity (MIC, method of Example 1), Table 7: E. coli B-123; for MIC: Escherichia coli, B123, E. coli B123, read-out: MIC
In short: as §3

[11] = test system: E. coli B-89; experiment: as above; conditions: E. coli B-89
In short: as §3

[12] = test system: E. coli 7MP; experiment: as above; conditions: E. coli 7MP
In short: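 Agar dilution, CLSI: diluted overnight inoculum on doubling-dilution antibiotic plates; cephalosporins ± tazobactam; 16-20 h, 35±2° C, ambient air; growth/no growth read.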

[13] = ESBL inhibitor 0 mcg (antibiotic alone)
[14] = Table 5, with Tazobactam 10 mcg

CO/N=C(\C(=O)N[C@@H]1C(=O)N2C(C(=O)[O-])=C(C[N+]3(C)CCCC3)CS[C@H]12)c1csc(N)n1 [Cefepime] was tested, and the “Zone of Inhibition” value [1, 13] was “Nil”, the “Interpretation of zone as per CLSI recommendations” value ([1]; Table 5, ESBL inhibitor 0 mcg) was “(R)” and the “Interpretation of zone as per CLSI recommendations” value [1, 14] was “(S)”. For the same compound, the “Zone of Inhibition” value ([1]; with Tazobactam 10 mcg) was 23 mm, the “Zone of Inhibition” value [2, 13] was 8 mm and the “Interpretation of zone as per CLSI recommendations” value ([2]; Table 5, ESBL inhibitor 0 mcg) was “(R)”. For the same compound, the “Interpretation of zone as per CLSI recommendations” value [2, 14] was “(S)”, the “Zone of Inhibition” value ([2]; with Tazobactam 10 mcg) was 20 mm and the “Zone of Inhibition” value [3, 13] was 7.5 mm. For the same compound, the “Interpretation of zone as per CLSI recommendations” value ([3]; Table 5, ESBL inhibitor 0 mcg) was “(R)”, the “Interpretation of zone as per CLSI recommendations” value [3, 14] was “(S)” and the “Zone of Inhibition” value ([3]; with Tazobactam 10 mcg) was 24 mm. For the same compound, the “Zone of Inhibition” value [4, 13] was 8 mm, the “Interpretation of zone as per CLSI recommendations” value ([4]; Table 5, ESBL inhibitor 0 mcg) was “(R)” and the “Interpretation of zone as per CLSI recommendations” value [4, 14] was “(S)”. For the same compound, the “Zone of Inhibition” value ([4]; with Tazobactam 10 mcg) was 20 mm, the “Zone of Inhibition” value [5, 13] was 16 mm and the “Interpretation of zone as per CLSI recommendations” value ([5]; Table 5, ESBL inhibitor 0 mcg) was “(I)”. For the same compound, the “Interpretation of zone as per CLSI recommendations” value [5, 14] was “(S)”, the “Zone of Inhibition” value ([5]; with Tazobactam 10 mcg) was 20.5 mm and the “Zone of Inhibition” value [6, 13] was 17 mm. The “Interpretation of zone as per CLSI recommendations” value ([6]; Table 5, ESBL inhibitor 0 mcg) was “(I)”, the “Interpretation of zone as per CLSI recommendations” value [6, 14] was “(S)” and the “Zone of Inhibition” value ([6]; with Tazobactam 10 mcg) was 20.5 mm. For the same compound, the Activity (MIC, method of Example 1), Table 7 ([7]; antibiotic alone) was over 64 µg/mL, the Activity (MIC, method of Example 1), Table 7 ([7]; with Clavulanic acid 4 mcg) was 16 µg/mL and the Activity (MIC, method of Example 1), Table 7 ([7]; with Clavulanic acid 8 mcg) was 8 µg/mL. For the same compound, the Activity (MIC, method of Example 1), Table 7 ([7]; with Sulbactam 4 mcg) was 32 µg/mL, the Activity (MIC, method of Example 1), Table 7 ([7]; with Sulbactam 8 mcg) was 16 µg/mL and the Activity (MIC, method of Example 1), Table 7 ([7]; with Tazobactam 4 mcg) was 4 µg/mL. For the same compound, the MIC ([7]; with Tazobactam 8 mcg) was 4 µg/mL, the Activity (MIC, method of Example 1), Table 7 ([7]; with Tazobactam, (4 mcg)) was 4 µg/mL and the MIC ([7]; Enterobacter cloacae, M20, 20 h, Tazobactam 0 mcg (antibiotic alone), read-out: MIC) was over 64 µg/mL. The MIC ([8]; K. pneumoniae M150, with Tazobactam 4 mcg) was 4 µg/mL, the MIC ([8]; K. pneumoniae M150, with Tazobactam 8 mcg) was 4 µg/mL and the MIC ([8]; Klebsiella pneumoniae, M150, K. pneumoniae M150, Tazobactam 0 mcg (antibiotic alone), read-out: MIC) was over 64 µg/mL. The MIC ([8]; Klebsiella pneumoniae, M150, K. pneumoniae M150, with Tazobactam 4 mcg, read-out: MIC) was 4 µg/mL, the MIC ([8]; Klebsiella pneumoniae, M150, K. pneumoniae M150, with Tazobactam 8 mcg, read-out: MIC) was 4 µg/mL and the MIC ([9]; Escherichia coli, 20 h, Tazobactam 0 mcg (antibiotic alone), read-out: MIC) was over 64 µg/mL. The MIC ([9]; with Tazobactam 4 mcg) was 2 µg/mL, the MIC ([9]; with Tazobactam 8 mcg) was 2 µg/mL and the Activity (MIC, method of Example 1), Table 7 ([10]; antibiotic alone) was over 64 µg/mL. It also gave an Activity (MIC, method of Example 1), Table 7 ([10]; with Clavulanic acid 4 mcg) of 8 µg/mL, an Activity (MIC, method of Example 1), Table 7 ([10]; with Clavulanic acid 8 mcg) of 8 µg/mL and an Activity (MIC, method of Example 1), Table 7 ([10]; with Sulbactam 4 mcg) of 8 µg/mL. For the same compound, the Activity (MIC, method of Example 1), Table 7 ([10]; with Sulbactam 8 mcg) was 16 µg/mL, the Activity (MIC, method of Example 1), Table 7 ([10]; with Tazobactam 4 mcg) was 4 µg/mL and the Activity (MIC, method of Example 1), Table 7 ([10]; with Tazobactam, (4 mcg)) was 2 µg/mL. It also gave an MIC ([10]; Tazobactam 0 mcg (antibiotic alone)) of over 64 µg/mL, an MIC ([10]; with Tazobactam 4 mcg) of 4 µg/mL and an MIC ([10]; with Tazobactam 8 mcg) of 2 µg/mL. It also gave an MIC ([11]; with Tazobactam 8 mcg) of 2 µg/mL, an MIC ([11]; Escherichia coli, B89, 20 h, Tazobactam 0 mcg (antibiotic alone), read-out: MIC) of over 64 µg/mL and an Activity (MIC, method of Example 1), Table 7 ([12]; antibiotic alone) of over 64 µg/mL. It also gave an Activity (MIC, method of Example 1), Table 7 ([12]; with Clavulanic acid 4 mcg) of 16 µg/mL, an Activity (MIC, method of Example 1), Table 7 ([12]; with Clavulanic acid 8 mcg) of 8 µg/mL and an Activity (MIC, method of Example 1), Table 7 ([12]; with Sulbactam 4 mcg) of 16 µg/mL. It also gave an Activity (MIC, method of Example 1), Table 7 ([12]; with Sulbactam 8 mcg) of 16 µg/mL, an Activity (MIC, method of Example 1), Table 7 ([12]; with Tazobactam 4 mcg) of 8 µg/mL and an MIC ([12]; with Tazobactam 4 mcg) of 8 µg/mL. The MIC ([12]; with Tazobactam 8 mcg) was 4 µg/mL, the Activity (MIC, method of Example 1), Table 7 ([12]; with Tazobactam, (4 mcg)) was 4 µg/mL and the MIC ([12]; Escherichia coli, 7MP, 20 h, Tazobactam 0 mcg (antibiotic alone), read-out: MIC) was over 64 µg/mL.
